From patent publication US20080118992A1, “Method For Measuring Molecular Interactions By Laser Light Scattering (Lls)” (UNIVERSITA DEGLI STUDI DI MILANO, priority 2004, published 2008)
Structures can show the parent of a compound that is named as a salt.

Test system: peptide sequence L-Lys-D-Ala-D-Ala (Receptor)
Assay: Determination of the binding constant by Laser Light Scattering (LLS) on receptor-coated polymer particles
Settings: Langmuir fit
Procedure: […]
After each addition the mixture was stirred for 30 seconds and let balance for 1 minute, and the scattering light intensity was measured by using a 5 milliwatt He—Ne laser and a photomultiplier to convert the scattered light into an electric signal.
The light intensity was recorded for 10 seconds for consecutive six times thus selecting the lowest value in order to minimize the noise due to the possible presence of powder in the sample. […]

## CN[C@H](CC(C)C)C(=O)N[C@H]1C(=O)N[C@@H](CC(N)=O)C(=O)N[C@H]2C(=O)N[C@H]3C(=O)N[C@H](C(=O)N[C@H](C(=O)O)c4cc(O)cc(O)c4-c4cc3ccc4O)[C@H](O)c3ccc(c(Cl)c3)Oc3cc2cc(c3O[C@@H]2O[C@H](CO)[C@@H](O)[C@H](O)[C@H]2O[C@H]2C[C@](C)(N)[C@H](O)[C@H](C)O2)Oc2ccc(cc2Cl)[C@H]1O [Vancomycin, Vancomycin hydrochloride hydrate]
Example 1: particles of average diameter 78 nm, TFE copolymer with 40% by moles perfluoromethylvinylether, 0.4 millimole Vancomycin solution
  binding constant (receptor-ligand): 1.5e+06 mol⁻¹
Example 2: particles of average diameter 40 nm, TFE copolymer with 30% by moles TTD, 0.9 millimolar Vancomycin
  binding constant (receptor-ligand): 1.1e+06 mol⁻¹
